Columns and labels:
Xanthine Oxidase (XO) = target: T1, Xanthine Oxidase (XO) (Bos taurus, UniProt P80457); assay: Xanthine oxidase activity inhibition test (XO/HRP double enzyme coupling, Ampliflu Red fluorescence); assay type: biochemical; conditions: 30 min preincubation and 30 min reaction at 30° C., pH 7.5; read-out: Xanthine oxidase inhibitor activity IC50
T1 construct: purchased Sigma-Aldrich Co., LLC
Procedure: A double enzyme coupling reaction of Xanthine Oxidase (XO) and Horseradish Peroxidase (HRP) and their substrates was used to test the activity inhibition of xanthine oxidase. First, xanthine oxidase oxidized hypoxanthine to produce xanthine and hydrogen peroxide, and further oxidized xanthine to produce uric acid and hydrogen peroxide. […] The fluorescence intensity of resorufin was determined by fluorescence enzyme spectrometer in direct proportion to xanthine oxidase activity.
In 96-well polypropylene reaction plate, the test compound was diluted into a 200-fold concentration of solution with DMSO through 2.5-fold serial dilution, and further diluted in ultra-pure water to obtain a series of 3-fold concentration of diluted solution.
Reaction solution A: 6 mU/mL xanthine oxidase solution was prepared in 0.1M Tris-HCl (pH7.5) buffer solution.
Reaction solution B: a mixture of 0.6 U/mL horseradish peroxidase solution, 0.15 mM Ampliflu Red and 0.3 mM hypoxanthine in 0.1M Tris-HCl (pH 7.5) buffer solution. The solution was protected from light at 4° C. and was prepared when it was ready for use.
9 μL reaction solution A was mixed with 3-fold concentration serial dilution solution of 9 μL test compound in a 96-well test plate, placed on a flat plate oscillator, and mixed at 30° C. at 100 rpm for 30 min. Then 9 μL reaction solution B was added. The enzyme reaction was carried out at 30° C. for 30 minutes. The fluorescence intensity at excitation light 530 nm and emission light 590 nm was measured by a microplate reader. The fluorescence intensity of the control without xanthine oxidase was 0%, and that of the control without the test compound was 100%.

[1] = system: rats with hyperuricemia induced by potassium oxonate; assay: Treatment of hyperuricemia in rats induced by potassium oxonate, serum uric acid; assay type: in vivo, SD rat; conditions: for Uric acid 1 h: 1 h after potassium oxonate; for Uric acid 3 h: 3 h after potassium oxonate; for Uric acid 5 h: 5 h after potassium oxonate; for Uric acid 0 h: before potassium oxonate injection
Procedure: Compounds 15, 24 and 38 were white powder, and compound 57 was light yellow powder, which was ground with 0.5% CMC-Na before use and prepared into suspension with corresponding concentrations (0.2 and 0.4 mg/mL) for gavage.
SD rat, SPF grade, male, weighing 180-220 g, purchased from Shanghai Slake Experimental Animal Co., Ltd., production license number: SCXK (Hu) 2017-0005, quality certificate number: 20170005050604.
72 SD rats, male, weighed about 200-230 g after one week of acclimatization. […] Drugs for each group were prepared into suspension with corresponding concentration, and the administration volume was 0.5 mL/100 g.
After purchased and fed for acclimatization, the rats in each group were fasted for 12 h, and the model was established by intraperitoneal injection with potassium oxonate at the dose of 300 mg/kg, and each of the test drug groups were administrated once by gavage after model establishment. Blood samples were collected from posterior orbital venous plexus before and 1, 3 and 5 h after potassium oxonate injection, centrifugated at 3500 rpm for 10 min, and 30 μL serum was taken to determine uric acid levels at each time point.
Then in two consecutive days, rat models were established with potassium oxonate by intraperitoneal injection at a dose of 300 mg/kg every day, and each test drug group was administrated once by gavage after model establishment. On the third day of administration, the rats were fasted for 12 h, and with the same test method on the first day, blood samples were collected from the posterior orbital venous plexus before and 1, 3 and 5 h after potassium oxonate injection, centrifuged at 3500 rpm for 10 min, and 30 μL serum was taken to determine the uric acid level at each time point.
The measurement data of each experiment were expressed as (mean)±s (standard deviation). ANOVA-Dunnett T test was used to investigate the significance between groups, and P<0.05 was used as a significant index, P<0.01 was used as a very significant index.

patients with gout = conditions: cited from earlier work
[2] = 1-day administration, 1 mg/kg gavage
[3] = 1-day administration, 2 mg/kg gavage
[4] = 3-day administration, 1 mg/kg gavage
[5] = 3-day administration, 2 mg/kg gavage
[6] = 1-day administration, 1 and 2 mg/kg groups, at 1, 3 and 5 h after model establishment
[7] = 3-day administration, 1 and 2 mg/kg groups, at 1, 3 and 5 h after model establishment

T1 sequence (P80457 2-1332 limits assumed): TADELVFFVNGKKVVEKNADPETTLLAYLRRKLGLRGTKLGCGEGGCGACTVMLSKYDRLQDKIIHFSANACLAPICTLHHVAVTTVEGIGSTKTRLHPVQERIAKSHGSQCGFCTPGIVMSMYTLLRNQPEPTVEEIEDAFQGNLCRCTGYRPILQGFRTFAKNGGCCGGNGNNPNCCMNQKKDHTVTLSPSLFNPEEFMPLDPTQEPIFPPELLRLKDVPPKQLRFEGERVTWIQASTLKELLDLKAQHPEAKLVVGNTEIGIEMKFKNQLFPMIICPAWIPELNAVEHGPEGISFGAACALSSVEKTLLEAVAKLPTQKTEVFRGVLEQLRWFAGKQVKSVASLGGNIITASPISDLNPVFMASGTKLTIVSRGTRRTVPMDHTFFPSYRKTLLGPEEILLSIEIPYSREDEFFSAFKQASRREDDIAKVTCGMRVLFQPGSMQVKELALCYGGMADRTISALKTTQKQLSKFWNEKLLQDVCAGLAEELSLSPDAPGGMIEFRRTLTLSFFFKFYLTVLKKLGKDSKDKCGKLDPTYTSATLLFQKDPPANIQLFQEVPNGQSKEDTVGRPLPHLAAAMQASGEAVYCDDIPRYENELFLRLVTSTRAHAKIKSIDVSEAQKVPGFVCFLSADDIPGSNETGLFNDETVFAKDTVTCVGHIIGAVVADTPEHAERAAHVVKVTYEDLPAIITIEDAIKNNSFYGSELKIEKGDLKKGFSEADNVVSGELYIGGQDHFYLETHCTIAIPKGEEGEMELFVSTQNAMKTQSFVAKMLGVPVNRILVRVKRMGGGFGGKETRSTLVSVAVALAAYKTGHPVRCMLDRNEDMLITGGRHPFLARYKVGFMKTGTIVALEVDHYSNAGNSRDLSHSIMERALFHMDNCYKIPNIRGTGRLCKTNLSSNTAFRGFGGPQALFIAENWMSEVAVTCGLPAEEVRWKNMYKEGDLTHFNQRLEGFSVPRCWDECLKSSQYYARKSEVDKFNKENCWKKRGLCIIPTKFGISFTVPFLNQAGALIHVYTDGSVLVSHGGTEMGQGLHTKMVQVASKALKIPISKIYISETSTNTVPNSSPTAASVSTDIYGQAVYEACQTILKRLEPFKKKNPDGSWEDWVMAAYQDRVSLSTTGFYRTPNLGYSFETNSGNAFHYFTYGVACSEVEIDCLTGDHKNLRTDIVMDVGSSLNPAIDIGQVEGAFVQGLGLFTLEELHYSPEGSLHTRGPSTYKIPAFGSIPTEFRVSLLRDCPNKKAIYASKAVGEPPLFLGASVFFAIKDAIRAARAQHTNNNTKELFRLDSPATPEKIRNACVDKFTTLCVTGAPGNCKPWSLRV

SMILES	IC50 (Xanthine Oxidase (XO)) [nM]	Uric acid 1 h [1, 2] [µmol/L]	Uric acid 3 h [1, 2] [µmol/L]	Uric acid 5 h [1, 2] [µmol/L]	Uric acid 0 h [1, 2] [µmol/L]	Uric acid 1 h [1, 3] [µmol/L]	Uric acid 3 h [1, 3] [µmol/L]	Uric acid 5 h [1, 3] [µmol/L]	Uric acid 0 h [1, 3] [µmol/L]	Uric acid 1 h [1, 4] [µmol/L]	Uric acid 3 h [1, 4] [µmol/L]	Uric acid 5 h [1, 4] [µmol/L]	Uric acid 0 h [1, 4] [µmol/L]	Uric acid 1 h [1, 5] [µmol/L]	Uric acid 3 h [1, 5] [µmol/L]	Uric acid 5 h [1, 5] [µmol/L]	Uric acid 0 h [1, 5] [µmol/L]	also measured
CC(C)n1cc(C#N)c2cc(-n3ncc(C(=O)O)n3)ccc21 [Compound 15, 2-(3-cyano-1-isopropyl-1H-indole-5-yl)-2H-1,2,3-triazole-4-formic acid]	1.84	104.3 ± 20.3	121.6 ± 12.2	118.4 ± 15.3	72.0 ± 6.7	98.1 ± 6.3	130.7 ± 11.5	109.7 ± 22.5	74.1 ± 10.3	78.4 ± 12.1	166.1 ± 37.5	100.0 ± 12.5	70.9 ± 12.8	88.2 ± 21.3	139.8 ± 32.7	97.6 ± 21.0	64.1 ± 4.8	Serum uric acid level compared with model group ([1]; 1-day administration, 2 mg/kg group, at 1 h after model establishment, P<0.01): significantly decreased
CC(C)n1nc(C#N)c2cc(-n3ncc(C(=O)O)n3)ccc21 [Compound 24, 2-(3-cyano-1-isopropyl-1H-indazole-5-yl)-2H-1,2,3-triazole-4-formic acid]	3.65	96.2 ± 9.3	131.0 ± 18.9	96.8 ± 13.6	65.3 ± 5.8	96.8 ± 5.4	126.4 ± 14.4	105.1 ± 16.6	77.6 ± 9.2	105.5 ± 12.7	155.3 ± 38.2	102.6 ± 8.3	87.8 ± 16.2	97.2 ± 27.5	104.0 ± 5.8	97.0 ± 14.6	90.4 ± 9.1	Serum uric acid level compared with model group ([1]; 1-day administration, 1 and 2 mg/kg groups, at 1 h after model establishment, P<0.01): significantly decreased; Serum uric acid level compared with model group ([1]; 3-day administration, 2 mg/kg group, at 3 h after model establishment, P<0.01): significantly decreased
CC(C)n1nc(C#N)c2cc(-c3ccc(C(=O)O)s3)ccc21 [Compound 28, 2-(3-cyano-1-isopropyl-1H-indazole-5-yl)thiophen-2-formic acid]	7.91	–	–	–	–	–	–	–	–	–	–	–	–	–	–	–	–	–
CC(C)Cn1nc(C#N)c2cc(-n3cc(C(=O)O)cn3)ccc21 [Compound 32, 1-(3-cyano-1-isobutyl-1H-indazole-5-yl)-1H-pyrazole-4-formic acid]	5.11	–	–	–	–	–	–	–	–	–	–	–	–	–	–	–	–	–
CCCn1nc(C#N)c2cc(-n3cc(C(=O)O)cn3)ccc21 [Compound 35, 1-(3-cyano-1-propyl-1H-indazole-5-yl)-1H-pyrazole-4-formic acid]	11.8	–	–	–	–	–	–	–	–	–	–	–	–	–	–	–	–	–
CC(C)n1nc(C#N)c2cc(-n3cc(C(=O)O)cn3)ccc21 [Compound 38, 1-(3-cyano-1-isopropyl-1H-indazole-5-yl)-1H-pyrazole-4-formic acid]	3.24	70.6 ± 7.7	74.6 ± 19.6	64.3 ± 10.6	75.6 ± 6.8	66.5 ± 7.5	77.4 ± 9.2	56.8 ± 4.0	73.1 ± 6.7	62.1 ± 14.1	69.4 ± 16.1	55.1 ± 5.8	61.0 ± 5.7	54.4 ± 5.1	73.1 ± 9.4	58.1 ± 9.6	60.9 ± 8.1	Serum uric acid level compared with model group [1, 6]: significantly decreased; Serum uric acid level compared with model group [1, 7]: significantly decreased
N#Cc1cn(CC2CC2)c2ccc(-n3ncc(C(=O)O)n3)cc12 [Compound 41, 2-(3-cyano-1-cyclopropylmethyl-1H-indole-5-yl)-2H-1,2,3-triazole-4-formic acid]	1.72	–	–	–	–	–	–	–	–	–	–	–	–	–	–	–	–	–
N#Cc1cn(C2CCOC2)c2ccc(-n3ncc(C(=O)O)n3)cc12 (stereo not drawn) [Compound 44, 2-[3-cyano-1-(tetrahydrofuran-3-yl)-1H-indole-5-yl]-2H-1,2,3-triazole-4-formic acid]	9.58	–	–	–	–	–	–	–	–	–	–	–	–	–	–	–	–	–
N#Cc1cn(C2CCC2)c2ccc(-n3ncc(C(=O)O)n3)cc12 [Compound 47, 2-(3-cyano-1-cyclobutyl-1H-indole-5-yl)-2H-1,2,3-triazole-4-formic acid]	1.71	–	–	–	–	–	–	–	–	–	–	–	–	–	–	–	–	–
N#Cc1nn(C2CC2)c2ccc(-n3cc(C(=O)O)cn3)cc12 [Compound 50, 1-(3-cyano-1-cyclopropyl-1H-indazole-5-yl)-1H-pyrazole-4-formic acid]	9.89	–	–	–	–	–	–	–	–	–	–	–	–	–	–	–	–	–
CC(C)n1nc(C#N)c2cc(-c3cc(C(=O)O)ccn3)ccc21 [Compound 57, 2-(3-cyano-1-isopropyl-1H-indazole-5-yl) isonicotinic acid]	2.89	74.7 ± 11.3	99.5 ± 12.4	85.7 ± 8.5	71.2 ± 8.3	64.0 ± 13.5	107.4 ± 12.5	94.8 ± 6.4	74.5 ± 8.9	57.5 ± 9.3	75.3 ± 6.3	90.0 ± 5.9	70.8 ± 8.6	63.6 ± 11.7	75.2 ± 16.9	81.1 ± 8.0	72.7 ± 15.6	Serum uric acid level compared with model group [1, 6]: significantly decreased; Serum uric acid level compared with model group ([1]; 3-day administration, 1 and 2 mg/kg groups, at 1 and 3 h after model establishment, P<0.01): significantly decreased
Cc1nc(-c2ccc(OCC(C)C)c(C#N)c2)sc1C(=O)O [Febuxostat, reference compound]	–	76.4 ± 11.4	91.3 ± 13.3	65.7 ± 12.4	81.3 ± 7.8	59.7 ± 6.6	60.7 ± 15.0	–	67.2 ± 1.9	53.0 ± 12.0	71.4 ± 23.5	61.1 ± 8.1	66.0 ± 11.3	47.5 ± 7.9	51.8 ± 6.7	–	65.5 ± 8.8	Serum uric acid level compared with model group [1, 6]: significantly decreased; Serum uric acid level compared with model group [1, 7]: significantly decreased; All-cause mortality, HR (patients with gout; febuxostat vs allopurinol group, 95% CI 1.01-1.47): 1.22; Cardiovascular mortality, HR (patients with gout; febuxostat vs allopurinol group, 95% CI 1.03-1.73): 1.34; Overall risk of adverse cardiovascular events, HR (patients with gout; febuxostat vs allopurinol group, average of 32 months of treatment, 95% CI 0.87-1.23): 1.03; Sudden cardiac death, share of group (patients with gout; patients with gout, per treatment group): 2.7%

Source: US20240262808A1, “XANTHINE OXIDASE INHIBITOR” (JIANGSU ATOM BIOSCIENCE AND PHARMACEUTICAL CO., LTD., priority 2021, published 2024)
